{
  "source": "patent US20120142766A1",
  "about": "“SUBSTITUTED 1,3-DIOXANES AND THEIR USES” (EVOLVA SA, priority 2007, published 2012)",
  "key": {"[1]": {"biological_target": "T1, Thromboxane synthase (Homo sapiens, UniProt P24557)", "T1 construct": "Human Platelet Thromboxane Synthase Assay; from tissue; host or cells: human platelets", "T1 sequence (P24557 1-533)": "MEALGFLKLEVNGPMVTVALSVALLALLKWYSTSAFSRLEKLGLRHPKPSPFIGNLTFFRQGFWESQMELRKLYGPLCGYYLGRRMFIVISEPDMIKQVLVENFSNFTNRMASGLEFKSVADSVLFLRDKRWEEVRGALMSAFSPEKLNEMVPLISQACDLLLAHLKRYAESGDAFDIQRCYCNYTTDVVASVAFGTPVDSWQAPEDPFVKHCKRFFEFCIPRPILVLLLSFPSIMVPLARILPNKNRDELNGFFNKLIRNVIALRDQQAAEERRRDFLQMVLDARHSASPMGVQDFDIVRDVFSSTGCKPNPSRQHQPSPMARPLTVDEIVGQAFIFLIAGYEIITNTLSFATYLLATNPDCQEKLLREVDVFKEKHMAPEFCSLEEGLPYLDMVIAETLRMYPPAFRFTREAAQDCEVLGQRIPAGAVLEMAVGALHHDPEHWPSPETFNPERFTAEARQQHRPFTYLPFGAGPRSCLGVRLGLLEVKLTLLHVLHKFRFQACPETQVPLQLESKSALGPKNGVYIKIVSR", "experiment": "Human platelet thromboxane synthase assay", "type": "biochemical", "conditions": "10 μM", "protocol": "The compounds were tested for thromboxane synthase inhibition essentially as described by Borsch-Haubold A G, Pasquet S, Watson S P. (1998) Direct inhibition of cyclooxygenase-1 and -2 by the kinase inhibitors SB 203580 and PD 98059. […] 1. Imidazole derivatives. J Med. Chem. (10):1139-48 according to the following:\nPre-incubation time, temp: 15 minutes at 25° C. Incubation time, temp: 3 minutes at 25° C.\nIncubation Buffer: 10 mM Tris-HCl, pH 7.4\nQuantification Method: EIA quantification of TxB2"}, "[2]": {"system": "KKA^y mice", "experiment": "KKAy mice on high fat diet, 14-day oral gavage BID", "type": "in vivo, mouse", "protocol": "52 male KKA^y mice are obtained commercially (e.g., from Clea Japan) at an age of 6 weeks and put on a high fat diet upon arrival. Individual mice were housed in IVC Type II cages during both the acclimatization and the experimental phase. Both food (high fat diet) and water are supplied ad libitum.\n1 animal per cage. […] Lights on at 06:00 a.m. Temperature: 21-25° C. Relative humidity target range: 55-60%.\nMice were randomized into treatment groups according to their 4-h fasting blood glucose.\n4 hours after the last administration, non-fasting conditions.\nGamma irradiated high fat diet is commercially available (e.g., Research Diets, Inc. New Brunswick, N.J. (Product # D12266BI)).\nBlood is collected into heparin containing glass capillaries which are subsequently centrifuged in a “Haematokrit 24” centrifuge (Hettich) at 15′200×g for 10 minutes at room temperature to obtain the hematocrit value.\nThe following serum parameters are determined on a COBAS INTEGRA 800 auto analyzer (Roche Diagnostics, Switzerland) using the reagents and protocols provided by the supplier.\nAll measurements are made on Day 14 of administration, except for the food intake and body weight measurements that are made on Day 12."}, "[3]": {"biological_target": "T2, Human Recombinant (E. coli) PPARgamma (Homo sapiens, UniProt P37231)", "T2 construct": "host or cells: E. coli", "T2 sequence (P37231 1-505)": "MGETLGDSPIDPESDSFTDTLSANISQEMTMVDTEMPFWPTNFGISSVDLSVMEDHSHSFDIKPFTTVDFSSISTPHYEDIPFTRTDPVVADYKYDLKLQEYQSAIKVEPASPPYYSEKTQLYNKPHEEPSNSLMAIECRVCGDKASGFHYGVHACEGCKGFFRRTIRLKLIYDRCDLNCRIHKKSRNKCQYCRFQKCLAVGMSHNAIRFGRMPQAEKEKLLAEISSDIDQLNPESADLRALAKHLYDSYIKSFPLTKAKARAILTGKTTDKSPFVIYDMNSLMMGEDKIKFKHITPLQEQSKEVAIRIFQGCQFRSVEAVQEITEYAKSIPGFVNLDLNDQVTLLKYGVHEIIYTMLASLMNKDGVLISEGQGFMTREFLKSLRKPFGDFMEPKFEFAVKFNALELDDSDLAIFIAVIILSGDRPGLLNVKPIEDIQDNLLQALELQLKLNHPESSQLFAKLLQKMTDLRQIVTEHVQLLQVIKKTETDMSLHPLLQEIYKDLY", "experiment": "PPAR gamma binding assay ([3H]-rosiglitazone)", "conditions": "[3H]-rosiglitazone 10 nM", "protocol": "Incubation: 120 min. at 4° C.\nThe results are expressed as a percent of control specific binding ((measured specific binding/control specific binding)×100) obtained in the presence of the test compounds. The IC50 values (concentration causing a half-maximal inhibition of control specific binding) and Hill coefficients (nil) were determined by non-linear regression analysis of the competition curves generated with mean replicate values using Hill equation curve fitting (Y=D+[(A−D)/(1+(C/C50)nH)], where Y=specific binding, D=minimum specific binding, A=maximum specific binding, C=compound concentration, C50=IC50, and nH=slope factor). This analysis was performed using a software developed at Cerep (Hill software) and validated by comparison with data generated by the commercial software SigmaPlot® 4.0 for Windows® (© 1997 by SPSS Inc.). The inhibition constants (Ki) were calculated using the Cheng Prusoff equation (Ki=IC50/(1+(L/KD)), where L=concentration of radioligand in the assay, and KD=affinity of the radioligand for the receptor)."}, "[4]": {"conditions": "53 mg/kg BID oral gavage, Day 12, mean ± S.E.M."}, "[5]": {"conditions": "53 mg/kg BID oral gavage, Day 14, mean ± S.E.M."}, "[6]": {"conditions": "14-day BID, enoic acid 53 mg/kg, rosiglitazone 5 mg/kg, Compounds 3 and 13 dose not stated"}},
  "note": "Values joined by “and” are separate entries in the source; they are usually repeats but may differ in a detail not shown here. Equal values may be shown once.",
  "data": [
    {"smiles": "O=C(O)CC/C=C\\C[C@@H]1CO[C@H](c2ccccc2Cl)O[C@@H]1c1ccccc1O", "note": "[Compound C, (Z)-6-((2S,4S,5R)-2-(2-chlorophenyl)-4-(2-hydroxyphenyl)-1,3-dioxan-5-yl)hex-4-enoic acid]", "values": [
      {"measurement": "Thromboxane synthase Human platelet Inhibition (%)", "setting": "[1]", "result": 61, "unit": "%"},
      {"measurement": "inhibition at 10 µM", "setting": "[1]", "result": 43, "unit": "%"},
      {"measurement": "Body Weight", "setting": "[2]; [4]", "result": "45.4 ± 1.0", "unit": "g"},
      {"measurement": "Food Intake", "setting": "[2]; [4]", "result": "5.0 ± 0.6", "unit": "g/day"},
      {"measurement": "ALP", "setting": "[2]; [5]", "result": "21.5 ± 1.6", "unit": "dU/L"},
      {"measurement": "ALT", "setting": "[2]; [5]", "result": "5.1 ± 0.6", "unit": "dU/L"},
      {"measurement": "AST", "setting": "[2]; [5]", "result": "7.7 ± 1.0", "unit": "dU/L"},
      {"measurement": "FFA", "setting": "[2]; [5]", "result": "1.7 ± 0.3", "unit": "mM"},
      {"measurement": "Fructosamine", "setting": "[2]; [5]", "result": "0.41 ± 0.03", "unit": "mM"},
      {"measurement": "HDL", "setting": "[2]; [5]", "result": "3.1 ± 0.2", "unit": "mM"},
      {"measurement": "HbA1C", "setting": "[2]; [5]", "result": "7.8 ± 0.3", "unit": "%"},
      {"measurement": "Heart weight", "setting": "[2]; [5]", "result": "208.5 ± 7.6", "unit": "mg"},
      {"measurement": "Hematocrit", "setting": "[2]; [5]", "result": "40.1 ± 1.6", "unit": "%"},
      {"measurement": "Insulin", "setting": "[2]; [5]", "result": "39.1 ± 8.8", "unit": "µg/L"},
      {"measurement": "Serum Glucose", "setting": "[2]; [5]", "result": "31.9 ± 3.6", "unit": "mM"},
      {"measurement": "TG", "setting": "[2]; [5]", "result": "2.0 ± 0.3", "unit": "mM"},
      {"measurement": "Total Cholesterol", "setting": "[2]; [5]", "result": "3.6 ± 0.3", "unit": "mM"},
      {"measurement": "Body weight (in words)", "setting": "[2]; [6]", "result": "do not alter body weight"},
      {"measurement": "Circulating glucose levels (in words)", "setting": "[2]; [6]", "result": "decreased"},
      {"measurement": "FFA (in words)", "setting": "[2]; [6]", "result": "decreases the FFA"},
      {"measurement": "HbA1c levels (in words)", "setting": "[2]; [6]", "result": "decreased"},
      {"measurement": "Heart weight (in words)", "setting": "[2]; [6]", "result": "no effect on heart weight"},
      {"measurement": "Ki", "setting": "[3]; Cheng Prusoff, read-out: PPARγ binding Ki", "result": "1.8 µM and 4.3 µM"},
      {"measurement": "IC50", "setting": "[3]; read-out: PPARγ binding IC50", "result": "4.9 µM and 12 µM"}
    ]}
  ]
}
